Test results from US5147604A, “Dioxo-aromatic compounds as oxygen scavengers” (Betz Laboratories, Inc., priority 1988, dated 1992).

Experiments:
[1] = Oxygen scavenging efficacy at elevated temperature and pressure in hot water flow system (Example 1, TABLE 1); conditions: for oxygen scavenging (in words): test water, TABLE 1; for % O2 Removed: 78°±3°C, 4±1 psig, contact 4±0.2 min, feedwater concentration, pH and initial O2 (ppm) vary by line of TABLE 1, values below 20% may be experimental artifacts
Description: In a first series of tests, the oxygen scavenging efficacies of various materials were evaluated under conditions of elevated temperature and pressure. The test apparatus used was essentially a stainless steel hot water flow system equipped with appropriate monitoring instrumentation. Demineralized feedwater, adjusted to the appropriate pH and initial dissolved oxygen level (controlled by nitrogen sparging), was pumped from a reservoir at ambient temperature into a once-through heater. Temperature was monitored continuously by means of thermocouples at several locations along the length of the flow tubing. A solution containing the oxygen scavenger test material was loaded into a pump driven syringe and fed continuously to the heated flow stream through a port containing a stainless steel ribbon mixing baffle. The feedwater containing dissolved oxygen and the test material then traversed the flow tubing via a by-pass comprising an additional length of coiled tubing. Contact (or reaction) time of the test material and dissolved oxygen was governed by the choice of coil length. The tendency of the temperature to drop during residence in the coiled tubing was offset by the use of thermostatted heating tapes which maintained the temperature in this tubing at 78°±3°C. Upon exiting the coiled tubing, the stream flowed through a sample cooler to render the temperature of the liquid compatible with the operating range of a membrane-type dissolved oxygen probe. The cooled liquid was analyzed for dissolved oxygen via a D.O. flow cell, and pH was potentiometrically monitored in the flow tube immediately downstream of the D.O. probe. Outputs of the temperature, pH and dissolved oxygen probes during operation were monitored via strip chart recorders. The final destination of the reaction mixture was a reservoir which could be drained for analysis of reaction products, if desired.
Temperature in the system could be maintained at 78°±3° C. under 4±1 psig. Residence time of the feedwater in the flow tube from chemical feed point to D.O. flow cell outlet was 4±0.2 minutes. […] Entry into and residence in the sample cooler accounted for 0.5 minute of the total contact time. […]
The test solutions were prepared by initially mixing 10 grams of test material and 90 grams of demineralized water in glass bottles and allowing the mixture to remain in a shaker for several hours. If complete dissolution for a given material was observed after shaking, the pH of the solution was measured. When the pH of the solution was below 10.0, 7N sodium hydroxide was added dropwise until this value was reached. The quantity of added sodium hydroxide was recorded and later used in corrections for the active concentration of the solution. When the pH value of a stock solution was above pH 10.0 without requiring the addition of caustic, the solution was not further modified.
Results of these tests are reported in TABLE 1 below in terms of percent oxygen removed from the test stream. The precision of the initial and final dissolved oxygen values reported is approximately ±10%. […] The experimental uncertainties decrease with increasing values of percent dissolved oxygen removal.

[2] = system: test rats; conditions: NIOSH Registry of Toxic Effects of Chemical Substances (1976); cited from earlier work
[3] = Oxygen scavenging in feedwater of a working boiler, field-type conditions (Example 2, TABLES 2 and 3); conditions: TABLE 2, actives 1.0-2.2 ppm, pH 8.7-9.4, steam load 11 or 15 (1000 lbs./hr.), initial O2 3.8-8 ppb by line
[4] = Low (room) temperature reactivity with oxygen (Example 4, TABLE 5); conditions: mole ratio of treatment to O2 and initial O2 by line of TABLE 5; for % O2 Removed, 1 Minute: room temperature 22.5-26.5 °C, pH 8.6-10.0; for % O2 Removed, 5 Minutes: room temperature 24.0-26.5 °C, pH 9.1-10.0
Text: In a further series of tests, the low (room) temperature reactivities with oxygen of various dioxo compounds were compared to that of hydrazine. The test apparatus basically consisted of a 1 liter three-necked flask fitted with a dissolved oxygen probe and a pH electrode. The intent of this apparatus was to show reaction kinetics differences rather than precise measurements (within seconds) of reaction times.
The flask was filled with deionized water which had been stripped of some dissolved oxygen by bubbling nitrogen through a diffuser stone. The pH was adjusted to the desired level with sodium hydroxide. The flask was sealed with a rubber septum, the dissolved oxygen probe and an inlet stopper. A magnetic stirrer bar was left in the flask for mixing. The mixer was turned on, and dissolved oxygen and temperature readings were recorded until the dissolved oxygen reached a constant value. Next, the appropriate quantity of additive was injected through the septum using a hypodermic syringe. The initial mole ratio of treatment to dissolved oxygen was determined by weighing feed chemical and measuring the oxygen concentration. […] Dissolved oxygen and temperature readings were then taken at appropriate time intervals.
The results of these tests are provided below in TABLE 5 in terms of relative amounts of % oxygen removed at the time intervals indicated (1 and 5 minutes).

[5] = to nitrogen, hydrogen and ammonia; cited from earlier work
[6] = Thermal decomposition studies of aqueous solutions in autoclaves (Example 5, TABLE 6); conditions: hydrazine 60 ppm, 4 hours

With `Nc1ccc(N)cc1` [p-phenylenediamine] the “oxygen scavenging (in words)” value [1] was “ineffective”.
With `O=C(O)c1ccc(O)cc1` [p-hydroxybenzoic acid] the “% O2 Removed” value [1] was 13%.
With `Oc1ccc(-c2ccccc2)cc1` [p-phenylphenol] the “% O2 Removed” value [1] was 40%.
For `COc1ccc(O)cc1` [p-methoxyphenol], the “% O2 Removed” value [1] was 40%.
In the case of `Oc1cccc(O)c1` [resorcinol], the “oxygen scavenging (in words)” value [1] is reported as “ineffective”.
For `O=Cc1cc(O)ccc1O` [2,5-dihydroxybenzaldehyde], the “% O2 Removed” value [1] was 98%.
For `O=Cc1ccc(O)cc1O` [2,4-dihydroxybenzaldehyde], the “% O2 Removed” value [1] was 14% and the “oxygen scavenging (in words)” value [1] was “ineffective”.
In the case of `O=[N+]([O-])c1ccccc1O` [2-nitrophenol], the “% O2 Removed” value [1] is reported as 0%.
With `O=Cc1ccc(O)c(O)c1` [3,4-dihydroxybenzaldehyde] the “% O2 Removed” value [1] was 73 ± 2%.
For `CC(C)(C)c1ccc(O)c(O)c1` [4-tert-butylcatechol], the “% O2 Removed” value [1] is given as 97%, the “LD50 Oral Rat” value [2] is given as 2820 mg/kg and the “% O2 Removed” value [3] is given as 37%.
For `Oc1ccc(O)cc1` [hydroquinone], the “LD50 Oral Rat” value [2] is listed as 320 mg/kg.
With `Nc1ccccc1N` [o-phenylenediamine] the “oxygen scavenging (in words)” value [1] was “ineffective”.
With `O=C1C=CC(=O)C=C1` [benzoquinone] the “% O2 Removed” value [1] was 96%, the “oxygen scavenging (in words)” value [1] was “quite efficacious as an oxygen scavenger” and the “% O2 Removed, 1 Minute” value [4] was 76%. For the same molecule, the “% O2 Removed, 5 Minutes” value [4] was 90% and the “% O2 Removed” value [3] was 57%.
For `NN` [hydrazine], the “temperature above which it decomposes” value [5] is given as “Above 400 ° F”, the “LD50 Oral Rat” value [2] is given as 60 mg/kg and the “% Decomposition” value ([6]; 0 psig, 70 °F.) is given as 0%. For the same molecule, the “% Decomposition” value ([6]; 1100 psig, 550 °F.) was 52%, the “% Decomposition” value ([6]; 1620 psig, 600 °F.) was 79% and the “% Decomposition” value ([6]; 2000 psig, 636 °F.) was 93%.
For `Cc1ccccc1O` [o-cresol], the “% O2 Removed” value [1] was 17%.
With `Oc1ccccc1O` [catechol] the “% O2 Removed” value [1] was 96%, the “% O2 Removed, 1 Minute” value [4] was 7% and the “% O2 Removed, 5 Minutes” value [4] was 30%. The “LD50 Oral Rat” value [2] was 3890 mg/kg and the “% O2 Removed” value [3] was 75%.
In the case of `O=C1C=CC(=O)c2ccccc21` [1,4-naphthoquinone], the “% O2 Removed” value [1] is reported as 99% and the “% O2 Removed” value [3] is reported as 88%.
